Assay results reported in the supplement of paper PMC10307832.

Legend:
Experiment in all cases: relative viability (nuclei count vs DMSO), 5 days (fraction); higher = more cells survive
[1] = compound: O=C(CCCCCCNC(=O)c1cnc(N(c2ccccc2)c2ccccc2)nc1)NO [Ricolinostat] + Nc1nc2[nH]cc(CCc3ccc(C(=O)N[C@@H](CCC(=O)O)C(=O)O)cc3)c2c(=O)[nH]1 [Pemetrexed] (partner 0.2 µM)
In short: (§1)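 The day after seeding in 1536-well plates, lung cancer cell lines were treated by pin tool with a single drug, or with a fixed anchor-drug dose together with five library-drug doses (not always all listed) in √10 steps. After 5 days, a combined fix-and-stain solution (final 0.05% Triton X-100, 1% formaldehyde, 1 ug/ml Hoechst) was added. Nuclei counted on 4× images gave relative viability as treated counts over vehicle counts, reported as the median of duplicate plates.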

TGX 221 + Palbociclib = compound: CC1=CN2C(=O)C=C(N=C2C(=C1)C(C)NC3=CC=CC=C3)N4CCOCC4 [TGX 221] + CC(=O)c1c(C)c2cnc(Nc3ccc(N4CCNCC4)cn3)nc2n(C2CCCC2)c1=O [Palbociclib] (partner 0.5 µM)
In short: as §1

[2] = compound: C1=CC=C(C(=C1)C2=CC=C(C=C2)C3=CSC4=C3C(=C(C(=O)N4)C#N)O)O + C[C@]1(O)C[C@@H](c2nc(-c3ccc4ccc(-c5ccccc5)nc4c3)c3c(N)nccn32)C1 [Linsitinib] (partner 1 µM)
In short: as §1

[3] = compound: C1=CC=C(C(=C1)C2=CC=C(C=C2)C3=CSC4=C3C(=C(C(=O)N4)C#N)O)O + CC(C)C[C@H](NC(=O)[C@H](Cc1ccccc1)NC(=O)c1cnccn1)B(O)O [Bortezomib] (partner 0.002 µM)
In short: as §1

| Cell Line | relative viability ([1]; first compound 0.253 µM) | relative viability ([1]; first compound 0.8 µM) | relative viability ([1]; first compound 2.53 µM) | relative viability (TGX 221 + Palbociclib; first compound 0.08 µM) | relative viability (TGX 221 + Palbociclib; first compound 0.253 µM) | relative viability (TGX 221 + Palbociclib; first compound 0.8 µM) | relative viability (TGX 221 + Palbociclib; first compound 2.53 µM) | relative viability (TGX 221 + Palbociclib; first compound 8 µM) | relative viability ([2]; first compound 0.08 µM) | relative viability ([2]; first compound 0.253 µM) | relative viability ([2]; first compound 0.8 µM) | relative viability ([2]; first compound 2.53 µM) | relative viability ([2]; first compound 8 µM) | relative viability ([3]; first compound 0.08 µM) | relative viability ([3]; first compound 0.253 µM) | relative viability ([3]; first compound 0.8 µM) | relative viability ([3]; first compound 2.53 µM) | relative viability ([3]; first compound 8 µM) | relative viability ([1]; first compound 0.08 µM) |
| --- | --- | --- | --- | --- | --- | --- | --- | --- | --- | --- | --- | --- | --- | --- | --- | --- | --- | --- | --- |
| LOU-NH91 | 0.327 | 0.378 | 0.367 | 0.612 | 0.511 | 0.448 | 0.492 | 0.517 | 0.903 | 1.06 | 0.878 | 0.911 | 0.89 | 0.428 | 0.496 | 0.449 | 0.515 | 0.443 |  |
| LU99A | 0.159 | 0.184 | 0.156 | 0.383 | 0.344 | 0.373 | 0.405 | 0.366 | 0.556 | 0.582 | 0.614 | 0.645 | 0.468 | 1.26 | 1.03 | 1.43 | 1.14 | 1 | 0.188 |
| SW 1573 | 0.742 | 1.07 | 0.864 | 0.299 | 0.313 | 0.39 | 0.341 | 0.343 | 0.812 | 0.875 | 0.951 | 0.834 | 0.721 | 0.823 | 1.02 | 1.12 | 1.04 | 0.88 | 0.857 |
| NCI-H1437 | 0.32 | 0.276 | 0.263 | 0.294 | 0.317 | 0.324 | 0.276 | 0.295 | 0.668 | 1.37 | 1.03 | 1.21 | 0.81 | 0.539 | 0.665 | 0.603 | 0.406 | 0.322 | 0.329 |
| PC-3 [JPC-3] | 1.11 | 0.738 | 1 | 0.522 | 0.516 | 0.541 | 0.499 | 0.566 | 1.1 | 1.06 | 0.989 | 0.952 | 1.09 | 0.762 | 0.817 | 0.758 | 0.95 | 0.899 | 0.845 |
| NCI-H1651 | 0.571 | 0.55 | 0.552 | 0.525 | 0.465 | 0.505 | 0.489 | 0.44 | 0.807 | 0.9 | 1.02 | 0.868 | 0.788 | 0.866 | 0.914 | 1.01 | 1.02 | 0.834 | 0.463 |
| CAL-12T | 1.15 | 1.28 | 1.37 | 0.466 | 0.556 | 0.467 | 0.326 | 0.0733 | 0.636 | 1.12 | 0.762 | 0.907 | 0.787 |  | 0.898 | 0.911 | 0.936 | 0.804 | 0.884 |
| NCI-H23 | 0.642 | 0.684 | 0.737 | 0.479 | 0.441 | 0.424 | 0.479 | 0.389 | 0.614 | 0.58 | 0.679 | 0.603 | 0.402 | 0.884 | 1.11 | 1.19 | 1.07 | 0.558 | 0.562 |
